Assay results published in PMC4788259 (PLoS Neglected Tropical Diseases, 2016).

system: E. multilocularis metacestodes; test: PGI assay: phosphoglucose isomerase release from damaged metacestodes; assay type: cell-based, Echinococcus multilocularis; settings: 10 μM, 5 days, single wells, relative to DB1127 (10 μM)
How it was run: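 E. multilocularis metacestode vesicles (strain H95, grown in BALB/c mice, 2–4 mm diameter) were exposed in vitro to compounds for 5 days. Damage was read as phosphoglucose isomerase released into the medium. Initial screening used 10 μM in single wells, with 0.1% DMSO as negative control. EC50 values were derived from this read-out.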

SMILES | PGI (% of DB1127 at 10 uM) [%]
C=C(C)CCC(C)N1CCC(N2CCC(C(=O)NCCc3ccccc3)CC2)CC1 (centres unmarked) [MMV666110] | -25.44
O=C(NNc1cc(N2CCCC2)nc(N2CCCC2)n1)c1ccccc1 [MMV396770] | -1.95
CC(O)(c1ccc(Cl)cc1)C(CN1CCCCC1)c1ccccc1.Cl (centres unmarked) [MMV000620] | -136.22
OC(Cn1nnc2ccccc21)Cn1c2ccc(Br)cc2c2cc(Br)ccc21 (centres unmarked) [MMV666025] | 1.46
CN(C)c1ccc(N2C(N)=NC(N)=NC2(C)C)cc1 [MMV667487] | -14.53
Cc1ccc(-c2cc(C(=O)Nc3ccc(S(=O)(=O)N4CCCCC4)cc3)[nH]n2)c(O)c1 [MMV665906] | -8.23
Clc1ccc2c(N3CCCC3)ccnc2c1 [MMV007363] | -15.91
CCn1c(SCC(=O)Nc2cc(C(F)(F)F)ccc2Cl)nc2ccccc2c1=O [MMV666103] | -111.41
CC(C)(C)C(=O)Nc1ccc(C(=O)Nc2cccc(-c3nc4ccccc4[nH]3)c2)cc1 [MMV665879] | 17.15
Cc1ccc(CN2CCC(C(=O)Nc3ccc(-c4cc5ccccc5[nH]4)cc3)CC2)o1 [MMV666071] | -52.95
O=C1c2ccccc2C2=Nc3ccccc3SC(c3cccc(F)c3)C12 (centres unmarked) [MMV006389] | -15.52
CC(C)(C)CC(C)(C)NCC(O)COc1ccc(Cl)cc1Cl (centres unmarked) [MMV396794] | 97.35
COc1cc(-c2nc(-c3ccccc3)c(-c3ccccc3)[nH]2)cc(OC)c1O [MMV020750] | 7.02
Fc1ccc2[nH]c3c(NCCCN4CCOCC4)ncnc3c2c1 [MMV019871] | -31.05
CC(=O)c1sc(NC(=O)Nc2ccc(C)cc2C)nc1C [MMV665894] | -2.69
CCN(CC)CCNc1ncnc2c1[nH]c1ccc(Cl)cc12 [MMV396703] | -47.33
Cc1cc(Nc2ccc(C)c(Cl)c2)n2nc(C(F)(F)F)nc2n1 [MMV665874] | -25.13
Cl.OC(CNCc1ccccc1)Cn1c2ccccc2c2ccccc21 (centres unmarked) [MMV000839] | -2.41
CN(N=O)C1=C(NC2CCCCC2)C(=O)c2ccccc2C1=O [MMV667492] | -5.36
O=C(Nc1ccc(C23CC4CC(CC(c5ccccc5)(C4)C2)C3)cc1)c1cccs1 [MMV007574] | -11.28
O=C(NCC(c1ccsc1)N1CCCCCC1)c1ccc(C(F)(F)F)cc1 (centres unmarked) [MMV396672] | -34.18

SMILES | PGI (% of DB1127 at 10 uM) [%]
CCOc1c(Cl)cc(CNCC(O)c2ccccc2)cc1OC (centres unmarked) [MMV396632] | 5.30
Oc1ccc(Cl)cc1CNc1nc2ccccc2[nH]1 [MMV665850] | -85.60
Oc1ccccc1CN1CCC2(CCCN(Cc3ccccc3F)C2)C1 (centres unmarked) [MMV666116] | -7.59
CCc1ccc(CNCC(O)c2ccccc2)cc1.Cl (centres unmarked) [MMV665812] | -2.45
CC1CCN(Cc2c(O)ccc3cc(-c4nc5ccccc5s4)c(=O)oc23)CC1 [MMV009127] | 0.35
COc1ccc(C(=O)Nc2ccc(Cl)cc2C(=O)Nc2ccncc2)cc1 [MMV665799] | 5.52
CCCCC(O)(c1ccc(Cl)cc1)C(CN1CCOCC1)c1ccc(Cl)cc1.Cl (centres unmarked) [MMV000619] | -6.41
Cc1ccc(C(=O)c2oc3ccc4c(C)cc(=O)oc4c3c2C)cc1 [MMV086103] | -6.30
COCCNC(=O)c1ccc(OC2CCN(Cc3ccc(F)c(F)c3)CC2)c(Cl)c1 [MMV666072] | -116.21
Cc1[nH]c(-c2ccc(F)cc2)cc1C(=O)NC1CCN(Cc2ccccc2)CC1 [MMV019738] | 12.98
Oc1c(CN2CCN(c3ccccc3F)CC2)cc(Br)c2cccnc12 [MMV000760] | -8.56
CCOc1ccccc1NC(=O)CN1CCN(C(=O)c2ccco2)CC1 [MMV007791] | -28.95
OCCNc1nc(Nc2ccc(Cl)c(Cl)c2)nc2ccccc12 [MMV001041] | 6.70
Cc1ccc2c(C)nc(Nc3nc(C)cc(-c4ccccc4)n3)nc2c1 [MMV007041] | -2.18
CCN(CC)CCNc1ncnc2c1[nH]c1ccc(Br)cc12 [MMV006545] | -33.20
O=c1nc(C=Cc2ccc(Cl)cc2)oc2ccccc12 [MMV007977] | 41.38
c1ccc2c(NCCc3c[nH]c4ccccc34)c3ccccc3nc2c1 [MMV006513] | 41.08
CCOC(=O)c1cnc2c(C)cccc2c1Nc1ccc(C(C)=O)cc1 [MMV006250] | -32.91
COc1cccc(C=Cc2nc(=O)c3ccccc3o2)c1OC [MMV666693] | -16.84
CCOC(=O)C1(Cc2ccccc2)CCN(Cc2cccc(OC)c2O)CC1 [MMV666109] | -8.56
Cl.N=c1n(CCN2CCCCC2)c2ccccc2n1CC(O)c1cccc(Br)c1 (centres unmarked) [MMV665902] | -8.42

SMILES | PGI (% of DB1127 at 10 uM) [%]
CCOC(=O)C1=C(c2ccccc2)N=c2sc(=Cc3cc(C)n(-c4ccc(F)cc4)c3C)c(=O)n2C1c1cccc(OC)c1OC (centres unmarked) [MMV666601] | -52.06
Cc1ccc(-c2cc3c(nn2)-c2ccccc2C3=O)cc1 [MMV666021] | -22.93
Cc1c(C)n(CC(O)CNC2CCCCC2C)c2ccccc12 (centres unmarked) [MMV665806] | 5.77
Cc1cc(Nc2ccc(Cl)cc2)n2nc(C(F)(F)F)nc2n1 [MMV011256] | -32.20
COc1cccc(C2(C)Nc3ccccc3-c3nc4ccccc4n32)c1 (centres unmarked) [MMV396719] | 6.50
CN1CCN(c2nc(Nc3ccc(O)cc3)nc3ccccc23)CC1.Cl [MMV000986] | -4.90
O=C(O)C1Cc2c([nH]c3ccccc23)C(c2ccc(Cl)cc2Cl)N1 (centres unmarked) [MMV008138] | -14.05
Cc1ccc(-c2cc3c(SCC(=O)Nc4cc(C(F)(F)F)ccc4Cl)nccn3n2)cc1 [MMV396680] | -41.44
Cc1ccccc1OCCSc1nc2ccc(NC(=O)c3ccccc3)cc2s1 [MMV007577] | -17.47
CCC(C)NCC(O)(c1ccc(Cl)cc1)c1ccc(Cl)cc1 (centres unmarked) [MMV665928] | -109.93
CCc1c(C)c(=N)c2ccccc2n1C.I [MMV006278] | -42.72
OC(CNC1CCCCC1)Cn1c2ccc(I)cc2c2cc(I)ccc21 (centres unmarked) [MMV665882] | 54.36
CCN(CC)CCNc1ccnc2cc3ccccc3cc12 [MMV006303] | -4.34
Cc1ccc(NC(=O)Nc2cccc(Cl)c2)cc1F [MMV000911] | 185.05
FC(F)(F)c1ccc(Nc2nnnc3ccccc23)cc1 [MMV665935] | -27.43
FC(F)(F)c1cccc(CNC2CCN(CCc3ccccc3)CC2)c1 [MMV665979] | -152.47
CCOC(=O)c1cnc2ccc(OC)cc2c1NCc1ccccc1 [MMV665813] | -12.77
Cc1cc(C)c2nc(N3CCC(C(=O)NCCCN4CCC(N5CCCCC5)CC4)CC3)sc2c1 [MMV019780] | 36.03
CCOC(=O)c1c(NC(=O)c2ccccc2)sc2c(O)c(CN(CC)CC)ccc12 [MMV665831] | -16.80
COc1ccc(Br)cc1C1Nc2ccc3ccccc3c2C2=C1C(=O)CC(c1ccccc1)C2 (centres unmarked) [MMV020885] | -45.01
Cn1c(C(=O)c2cccc3ccccc23)nc2ccccc21 [MMV665824] | -1.12

SMILES | PGI (% of DB1127 at 10 uM) [%]
Oc1c(C(Nc2ccccn2)c2cccc(Oc3ccccc3)c2)ccc2cccnc12 (centres unmarked) [MMV665814] | -6.04
CC(C)c1ccc(CNCC(O)c2ccccc2)cc1.Cl (centres unmarked) [MMV001049] | 12.43
CN(C)c1ccc(-c2nc3ccc(N)cc3[nH]2)cc1 [MMV666102] | -14.14
O=C(Nc1ccccc1O)c1ccc(-c2ccc(Cl)cc2Cl)o1 [MMV665948] | -40.46
O=C(NCc1ccco1)C1CCN(S(=O)(=O)c2ccc(Br)cc2)CC1 [MMV007430] | -0.53
COc1ccc(C(=O)C2CC2c2ccc(Cl)cc2)cc1 (centres unmarked) [MMV665924] | -13.71
CN1c2ccccc2N(C)C1c1ccc2c(c1)OCO2 [MMV666009] | -36.57
COc1ccc(N2CCN(C(CNC(=O)CC(C)(C)C)c3ccc4c(c3)OCO4)CC2)cc1 (centres unmarked) [MMV665908] | -6.01
O=C(NC1CCN(Cc2ccccc2)CC1)c1cc(-c2cccnc2)nc2ccc(Cl)cc12 [MMV020490] | -15.64
CCCn1c(=N)c(C(=O)NC2CCCCC2)cc2c(=O)n3cccc(C)c3nc21 [MMV008829] | -2.96
OC(CNC1CCCCC1)Cn1c2ccccc2c2ccccc21 (centres unmarked) [MMV009063] | 29.02
COc1ccc2sc(N(Cc3cccnc3)C(=O)c3ccc(C#N)cc3)nc2c1 [MMV001239] | -2.38
CCOc1cc2c(cc1OCC)C(c1cc(OC)c(O)cc1Cl)NCC2 (centres unmarked) [MMV008956] | -28.84
Cc1ccc2nc(C)cc(Nc3cccc(C(F)(F)F)c3)c2c1.Cl [MMV000326] | 7.52
CN1CCN(c2ccc(Nc3c4ccccc4nc4ccccc34)cc2)CC1 [MMV006172] | 2.41
Cl.Clc1cc(Br)ccc1-c1ccc(CNCC2CCNCC2)o1 [MMV019918] | -10.89
CCN(CC)c1ccc(NC(=O)c2cccs2)cc1 [MMV009060] | -36.82
COc1ccc(C2=C(c3ccc(OC)cc3)C3(c4ccccc4)C(=O)C2(c2ccccc2)C2C(=O)N(c4ccc(C)cc4)C(=O)C23)cc1 (centres unmarked) [MMV666101] | -51.33
Cc1cc(NCCN2CCCCC2)c2ccc3ccccc3c2n1 [MMV006203] | -66.37
Cc1ccc(F)cc1NC(=O)c1cc(Cl)ccc1Nc1ccccc1 [MMV007275] | 1.44
